Results: ChEMBL document CHEMBL1201862, “PubChem BioAssay data set” (2004)
Calls of active or inactive are those of the source.

What was measured:
Format in all cases: functional
[1] = biological target: Tyrosine-protein kinase SYK (Homo sapiens, UniProt P43405)
[2] = biological target: Serine/threonine-protein kinase PLK1 (Homo sapiens, UniProt P53350);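 also: PLK1 measured as one member of a kinome-wide profiling panel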
[3] = biological target: Calcium/calmodulin-dependent protein kinase type II subunit delta (Homo sapiens, UniProt Q13557)
[4] = biological target: Serine/threonine-protein kinase Chk2 (Homo sapiens, UniProt O96017);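 also: CHEK2 entry within a kinome-wide screening panel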
[5] = biological target: Megakaryocyte-associated tyrosine-protein kinase (Homo sapiens, UniProt P42679);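 also: affinity measured as one member of a kinase panel (Navigating the Kinome) against MATK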
Megakaryocyte-associated tyrosine-protein kinase, sequence (P42679 whole entry): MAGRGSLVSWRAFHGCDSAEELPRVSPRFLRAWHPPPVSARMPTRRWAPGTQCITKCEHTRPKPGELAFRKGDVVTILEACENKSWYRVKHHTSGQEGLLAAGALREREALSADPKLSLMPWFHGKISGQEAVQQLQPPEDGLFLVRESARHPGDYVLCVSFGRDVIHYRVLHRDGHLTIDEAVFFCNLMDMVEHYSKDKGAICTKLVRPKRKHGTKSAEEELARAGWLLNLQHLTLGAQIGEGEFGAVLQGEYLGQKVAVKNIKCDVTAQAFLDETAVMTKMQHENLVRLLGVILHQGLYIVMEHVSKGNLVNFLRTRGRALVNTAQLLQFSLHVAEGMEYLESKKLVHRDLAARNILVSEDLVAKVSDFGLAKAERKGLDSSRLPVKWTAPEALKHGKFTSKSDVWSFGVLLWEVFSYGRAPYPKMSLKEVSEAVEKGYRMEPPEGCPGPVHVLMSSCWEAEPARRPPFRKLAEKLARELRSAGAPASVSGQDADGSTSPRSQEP

[6] = biological target: Maternal embryonic leucine zipper kinase (Homo sapiens, UniProt Q14680)
[7] = biological target: Cell division cycle 7-related protein kinase (Homo sapiens, UniProt O00311);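 also: value obtained from a kinome-wide kinase panel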
[8] = biological target: Serine/threonine-protein kinase PLK3 (Homo sapiens, UniProt Q9H4B4)
[9] = biological target: Lymphokine-activated killer T-cell-originated protein kinase (Homo sapiens, UniProt Q96KB5);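 also: value comes from a kinase panel screen in which TOPK was one of the panel members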
[10] = biological target: Tyrosine-protein kinase Fyn (Homo sapiens, UniProt P06241)
[11] = biological target: Tyrosine-protein kinase ITK/TSK (Homo sapiens, UniProt Q08881);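 also: affinity for ITK measured as one member of a broad kinase panel profiling binding across the kinome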
[12] = biological target: Serine/threonine-protein kinase D2 (Homo sapiens, UniProt Q9BZL6);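 also: measured against PRKD2 as one member of a kinome-wide kinase profiling panel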
Serine/threonine-protein kinase D2, sequence (Q9BZL6 whole entry): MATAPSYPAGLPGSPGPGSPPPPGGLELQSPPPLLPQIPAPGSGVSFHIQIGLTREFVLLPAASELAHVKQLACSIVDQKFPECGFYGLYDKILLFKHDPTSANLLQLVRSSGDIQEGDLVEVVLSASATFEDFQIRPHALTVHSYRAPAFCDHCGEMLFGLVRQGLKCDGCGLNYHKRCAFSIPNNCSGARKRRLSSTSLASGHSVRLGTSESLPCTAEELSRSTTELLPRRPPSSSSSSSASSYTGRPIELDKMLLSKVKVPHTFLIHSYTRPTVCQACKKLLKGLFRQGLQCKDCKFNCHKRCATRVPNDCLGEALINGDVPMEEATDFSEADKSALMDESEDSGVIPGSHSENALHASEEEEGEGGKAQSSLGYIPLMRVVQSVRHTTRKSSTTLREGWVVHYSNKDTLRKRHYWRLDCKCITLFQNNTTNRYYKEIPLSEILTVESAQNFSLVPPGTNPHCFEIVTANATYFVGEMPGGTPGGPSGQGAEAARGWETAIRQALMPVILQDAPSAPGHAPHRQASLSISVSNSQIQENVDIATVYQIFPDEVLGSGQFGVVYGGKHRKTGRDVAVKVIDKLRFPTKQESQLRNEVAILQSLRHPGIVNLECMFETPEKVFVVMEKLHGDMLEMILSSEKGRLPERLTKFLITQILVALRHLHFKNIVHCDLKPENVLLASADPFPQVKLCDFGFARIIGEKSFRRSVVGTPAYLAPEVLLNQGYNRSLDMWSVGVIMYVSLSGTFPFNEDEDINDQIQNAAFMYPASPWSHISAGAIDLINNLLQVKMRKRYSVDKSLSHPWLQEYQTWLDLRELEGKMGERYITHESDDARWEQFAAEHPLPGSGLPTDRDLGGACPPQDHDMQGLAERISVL

Misshapen-like kinase 1 = Misshapen-like kinase 1 (Homo sapiens, UniProt Q8N4C8);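 also: kinome panel screen with MINK as the panel member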
[13] = biological target: Serine/threonine-protein kinase Nek4 (Homo sapiens, UniProt P51957)
Serine/threonine-protein kinase Nek4, sequence (P51957 whole entry): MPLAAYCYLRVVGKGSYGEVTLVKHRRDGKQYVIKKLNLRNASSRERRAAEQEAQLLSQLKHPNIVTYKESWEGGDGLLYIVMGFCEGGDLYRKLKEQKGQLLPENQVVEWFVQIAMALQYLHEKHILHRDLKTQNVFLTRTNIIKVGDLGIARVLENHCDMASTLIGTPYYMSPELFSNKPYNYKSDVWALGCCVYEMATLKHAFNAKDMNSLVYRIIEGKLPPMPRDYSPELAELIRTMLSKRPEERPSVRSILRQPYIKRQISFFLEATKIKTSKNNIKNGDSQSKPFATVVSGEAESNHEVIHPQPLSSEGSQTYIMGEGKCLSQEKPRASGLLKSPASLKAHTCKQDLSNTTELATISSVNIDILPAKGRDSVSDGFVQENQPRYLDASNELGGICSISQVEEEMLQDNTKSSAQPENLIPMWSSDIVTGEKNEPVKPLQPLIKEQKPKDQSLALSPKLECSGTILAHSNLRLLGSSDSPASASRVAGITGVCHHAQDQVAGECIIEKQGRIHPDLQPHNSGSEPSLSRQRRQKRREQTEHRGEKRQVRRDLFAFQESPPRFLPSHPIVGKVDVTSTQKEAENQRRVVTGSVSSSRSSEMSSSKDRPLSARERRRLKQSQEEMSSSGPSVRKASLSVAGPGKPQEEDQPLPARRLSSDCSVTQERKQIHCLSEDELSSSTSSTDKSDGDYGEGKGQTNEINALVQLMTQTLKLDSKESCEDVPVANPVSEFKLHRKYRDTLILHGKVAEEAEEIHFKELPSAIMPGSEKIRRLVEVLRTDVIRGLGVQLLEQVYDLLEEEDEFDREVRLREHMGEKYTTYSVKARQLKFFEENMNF

[14] = biological target: Tyrosine-protein kinase JAK3 (Homo sapiens, UniProt P52333)
[15] = biological target: Vascular endothelial growth factor receptor 2 (Homo sapiens, UniProt P35968)
[16] = biological target: Ribosomal protein S6 kinase alpha-5 (Homo sapiens, UniProt O75582)
[17] = biological target: Dual specificity tyrosine-phosphorylation-regulated kinase 1A (Homo sapiens, UniProt Q13627);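 also: measured against DYRK1A as one member of a broad kinome profiling panel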
[18] = biological target: Hepatocyte growth factor receptor (Homo sapiens, UniProt P08581);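 also: kinase panel profiling across the kinome, with MET as the panel member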
[19] = biological target: Serine/threonine-protein kinase PAK 4 (Homo sapiens, UniProt O96013);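 also: value obtained within a kinome profiling panel in which PAK4 was one of the panel members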
[20] = biological target: Protein kinase C delta type (Homo sapiens, UniProt Q05655)
Aurora kinase A = Aurora kinase A (Homo sapiens, UniProt O14965);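 also: value from the Navigating the Kinome kinase panel profiling, panel entry STK6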
[21] = biological target: Receptor-type tyrosine-protein kinase FLT3 (Homo sapiens, UniProt P36888);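 also: FLT3 was tested as one member of a kinome-wide kinase panel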
Receptor-type tyrosine-protein kinase FLT3, sequence (P36888 whole entry): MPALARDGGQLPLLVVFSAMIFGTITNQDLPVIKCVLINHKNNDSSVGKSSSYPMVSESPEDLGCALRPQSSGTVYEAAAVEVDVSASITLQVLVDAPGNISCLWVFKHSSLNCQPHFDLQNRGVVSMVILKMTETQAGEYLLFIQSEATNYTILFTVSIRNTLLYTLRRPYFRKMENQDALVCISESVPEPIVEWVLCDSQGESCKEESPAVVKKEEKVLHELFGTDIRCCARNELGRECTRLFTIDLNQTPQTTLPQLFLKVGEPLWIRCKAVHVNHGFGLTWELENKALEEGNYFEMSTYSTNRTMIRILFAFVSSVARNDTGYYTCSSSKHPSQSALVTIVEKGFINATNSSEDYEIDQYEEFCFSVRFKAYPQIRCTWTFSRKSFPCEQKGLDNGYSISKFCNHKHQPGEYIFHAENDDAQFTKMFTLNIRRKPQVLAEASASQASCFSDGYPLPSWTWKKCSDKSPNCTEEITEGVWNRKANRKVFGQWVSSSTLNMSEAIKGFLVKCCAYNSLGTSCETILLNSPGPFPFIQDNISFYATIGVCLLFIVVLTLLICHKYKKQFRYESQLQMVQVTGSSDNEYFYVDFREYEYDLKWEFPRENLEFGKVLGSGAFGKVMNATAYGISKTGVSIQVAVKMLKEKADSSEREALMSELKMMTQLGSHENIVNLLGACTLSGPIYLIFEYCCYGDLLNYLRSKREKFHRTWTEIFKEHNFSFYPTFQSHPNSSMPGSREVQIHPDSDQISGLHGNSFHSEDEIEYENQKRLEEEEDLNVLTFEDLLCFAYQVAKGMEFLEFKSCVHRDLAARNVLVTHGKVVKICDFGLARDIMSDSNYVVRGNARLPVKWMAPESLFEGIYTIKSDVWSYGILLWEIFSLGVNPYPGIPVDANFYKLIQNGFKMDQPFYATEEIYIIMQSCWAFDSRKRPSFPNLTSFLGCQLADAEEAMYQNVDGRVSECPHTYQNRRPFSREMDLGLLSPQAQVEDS

[22] = biological target: Glycogen synthase kinase-3 beta (Homo sapiens, UniProt P49841);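 also: value comes from a broad kinome profiling panel, with GSK3B as the panel member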
[23] = biological target: Mitogen-activated protein kinase 12 (Homo sapiens, UniProt P53778);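 also: measured as one member of a kinome-wide kinase profiling panel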
Mitogen-activated protein kinase 12, sequence (P53778 whole entry): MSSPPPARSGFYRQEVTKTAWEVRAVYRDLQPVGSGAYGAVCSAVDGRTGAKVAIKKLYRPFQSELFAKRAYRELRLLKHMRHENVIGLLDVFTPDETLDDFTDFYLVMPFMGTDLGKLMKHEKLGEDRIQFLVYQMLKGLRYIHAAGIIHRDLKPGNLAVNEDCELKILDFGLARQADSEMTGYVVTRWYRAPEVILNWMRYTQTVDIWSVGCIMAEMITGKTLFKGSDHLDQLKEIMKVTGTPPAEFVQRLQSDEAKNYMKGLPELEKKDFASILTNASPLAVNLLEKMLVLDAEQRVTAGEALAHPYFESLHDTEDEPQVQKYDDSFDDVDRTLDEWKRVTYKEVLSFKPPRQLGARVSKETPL

[24] = biological target: Tyrosine-protein kinase Srms (Homo sapiens, UniProt Q9H3Y6);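 also: SRMS measured as one member of a kinome-wide kinase profiling panel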
[25] = biological target: MAP/microtubule affinity-regulating kinase 3 (Homo sapiens, UniProt P27448);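 also: MARK3 affinity measured as one member of a kinome panel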
[26] = biological target: Serine/threonine-protein kinase PAK 1 (Homo sapiens, UniProt Q13153)
Serine/threonine-protein kinase PAK 1, sequence (Q13153 whole entry): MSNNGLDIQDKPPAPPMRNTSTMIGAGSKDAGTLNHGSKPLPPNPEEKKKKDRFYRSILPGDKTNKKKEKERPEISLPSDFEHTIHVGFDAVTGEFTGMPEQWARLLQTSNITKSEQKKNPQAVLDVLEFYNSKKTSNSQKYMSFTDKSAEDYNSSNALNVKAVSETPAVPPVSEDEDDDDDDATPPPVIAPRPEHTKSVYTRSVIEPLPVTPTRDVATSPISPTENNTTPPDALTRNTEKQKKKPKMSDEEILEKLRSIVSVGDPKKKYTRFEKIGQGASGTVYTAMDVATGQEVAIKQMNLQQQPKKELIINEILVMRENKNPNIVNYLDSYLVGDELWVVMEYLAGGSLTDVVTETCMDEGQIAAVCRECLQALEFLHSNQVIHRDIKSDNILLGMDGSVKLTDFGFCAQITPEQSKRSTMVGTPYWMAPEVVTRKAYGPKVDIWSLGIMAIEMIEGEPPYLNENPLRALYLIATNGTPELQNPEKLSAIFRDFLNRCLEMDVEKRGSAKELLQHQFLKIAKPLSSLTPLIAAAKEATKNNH

[27] = biological target: Proto-oncogene tyrosine-protein kinase Src (Homo sapiens, UniProt P12931);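 also: SRC entry within a kinome-wide kinase profiling panel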
[28] = biological target: Dual specificity protein kinase CLK2 (Homo sapiens, UniProt P49760)
[29] = biological target: 5'-AMP-activated protein kinase catalytic subunit alpha-1 (Homo sapiens, UniProt Q13131)
5'-AMP-activated protein kinase catalytic subunit alpha-1, sequence (Q13131 whole entry): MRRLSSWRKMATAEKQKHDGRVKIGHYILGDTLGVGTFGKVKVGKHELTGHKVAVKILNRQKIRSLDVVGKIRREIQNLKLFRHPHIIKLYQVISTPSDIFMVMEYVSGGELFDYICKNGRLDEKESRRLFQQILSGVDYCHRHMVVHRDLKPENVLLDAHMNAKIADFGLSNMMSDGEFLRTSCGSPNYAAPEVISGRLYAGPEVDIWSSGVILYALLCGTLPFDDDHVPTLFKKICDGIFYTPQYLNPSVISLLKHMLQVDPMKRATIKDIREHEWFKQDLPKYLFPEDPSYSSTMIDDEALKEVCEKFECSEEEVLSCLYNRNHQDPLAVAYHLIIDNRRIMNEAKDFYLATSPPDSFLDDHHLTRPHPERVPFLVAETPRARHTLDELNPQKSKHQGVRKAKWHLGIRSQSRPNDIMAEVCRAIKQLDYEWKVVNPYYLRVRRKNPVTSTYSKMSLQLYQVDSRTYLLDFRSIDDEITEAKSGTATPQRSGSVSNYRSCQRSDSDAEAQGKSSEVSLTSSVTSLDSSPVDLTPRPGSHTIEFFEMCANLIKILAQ

[30] = biological target: cAMP-dependent protein kinase catalytic subunit PRKX (Homo sapiens, UniProt P51817)
cAMP-dependent protein kinase catalytic subunit PRKX, sequence (P51817 whole entry): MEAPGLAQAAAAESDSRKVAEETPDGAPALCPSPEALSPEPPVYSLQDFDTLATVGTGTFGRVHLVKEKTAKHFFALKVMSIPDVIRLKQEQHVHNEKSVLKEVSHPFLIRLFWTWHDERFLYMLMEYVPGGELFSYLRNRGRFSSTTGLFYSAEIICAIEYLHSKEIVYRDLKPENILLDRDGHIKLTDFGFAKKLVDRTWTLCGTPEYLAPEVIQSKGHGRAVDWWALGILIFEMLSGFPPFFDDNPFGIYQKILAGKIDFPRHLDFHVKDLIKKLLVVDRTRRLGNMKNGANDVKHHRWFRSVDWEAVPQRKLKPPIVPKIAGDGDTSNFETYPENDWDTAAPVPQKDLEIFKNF

[31] = biological target: Protein kinase C iota type (Homo sapiens, UniProt P41743);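 also: measured within a kinome-wide kinase panel, PRKCI as panel member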
SRSF protein kinase 1 = SRSF protein kinase 1 (Homo sapiens, UniProt Q96SB4);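 also: measured as one member of a kinome-wide kinase profiling panel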
[32] = biological target: Calcium/calmodulin-dependent protein kinase type 1 (Homo sapiens, UniProt Q14012)
[33] = biological target: Mitogen-activated protein kinase 1 (Homo sapiens, UniProt P28482)
[34] = biological target: Ribosomal protein S6 kinase alpha-3 (Homo sapiens, UniProt P51812);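 also: measured within a kinome-wide profiling panel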
[35] = biological target: Serine/threonine-protein kinase TAO1 (Homo sapiens, UniProt Q7L7X3)
[36] = biological target: Glycogen synthase kinase-3 alpha (Homo sapiens, UniProt P49840);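 also: GSK3A result taken from a broad kinome-wide kinase panel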
[37] = biological target: Tyrosine-protein kinase ABL1 (Homo sapiens, UniProt P00519)
[38] = biological target: Rho-associated protein kinase 1 (Homo sapiens, UniProt Q13464);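 also: measured within a broad kinome-wide panel profiling many kinases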
[39] = biological target: Tyrosine-protein kinase Lck (Homo sapiens, UniProt P06239);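 also: lck was assayed as one member of a kinase panel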
[40] = biological target: MAP kinase-activated protein kinase 5 (Homo sapiens, UniProt Q8IW41);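 also: measured as one member of a kinome panel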
[41] = biological target: Tyrosine-protein kinase BTK (Homo sapiens, UniProt Q06187)
[42] = biological target: Serine/threonine-protein kinase Chk1 (Homo sapiens, UniProt O14757);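 also: measured as one member of a kinome-wide kinase profiling panel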
[43] = biological target: 3-phosphoinositide-dependent protein kinase 1 (Homo sapiens, UniProt O15530);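 also: value comes from the Navigating the Kinome panel, PDPK1 member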
[44] = biological target: RAC-alpha serine/threonine-protein kinase (Homo sapiens, UniProt P31749);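 also: AKT1 affinity measured as one member of a kinome-wide kinase profiling panel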

Ki [1]: 200 nM (active)
Ki [2]: > 7940 nM (inactive)
Ki [3]: 3160 nM (active)
Ki [4]: 39.8 nM (active)
Ki [5]: > 2000 nM (inactive)
Ki [6]: > 1580 nM (inactive)
Ki [7]: 126 nM (active)
Ki [8]: > 7940 nM (inactive)
Ki [10]: > 794 nM (inactive)
Ki [11]: > 1580 nM (inactive)
Ki [12]: 794 nM (active)
Ki (Misshapen-like kinase 1): 501 nM (active)
Ki [13]: 3980 nM (active)
Ki [14]: > 1580 nM (inactive)
Ki [15]: 1260 nM (active)
Ki [16]: > 2000 nM (inactive)
Ki [17]: 100 nM (active)
Ki [18]: 2510 nM (active)
Ki [19]: > 5010 nM (inactive)
Ki [20]: 5010 nM (active)
Ki (Aurora kinase A): 1260 nM (active)
Ki [21]: 1260 nM (active)
Ki [22]: 100 nM (active)
Ki [23]: 5010 nM (active)
Ki [24]: > 1580 nM (inactive)
Ki [25]: 398 nM (active)
Ki [26]: 3980 nM (active)
Ki [27]: > 2000 nM (inactive)
Ki [28]: 1000 nM (active)
Ki [29]: 631 nM (active)
Ki [30]: 39.8 nM (active)
Ki [31]: 63.1 nM (active)
Ki (SRSF protein kinase 1): 2000 nM (active)
Ki [32]: > 5010 nM (inactive)
Ki [33]: > 7940 nM (inactive)
Ki [34]: 5010 nM (active)
Ki [35]: 2510 nM (active)
Ki [36]: 50.1 nM (active)
Ki [37]: > 631 nM (inactive)
Ki [38]: 1580 nM (active)
Ki [39]: > 2510 nM (inactive)
Ki [40]: 631 nM (active)
Ki [41]: > 1260 nM (inactive)
Ki [42]: > 7940 nM (inactive)
Ki [43]: 7.94 nM (active)
Ki [44]: > 7940 nM (inactive)
Compound: NC(=O)Cn1cc(-c2cc(-c3cc4ccccc4s3)c3[nH]ncc3c2)c2nc(N)ncc21
Ki [9]: > 10000 nM (inactive)
